Experimental data as given in patent publication US12521381B2, “Anticoccidial agent and method for using the same” (NIHON NOHYAKU CO., LTD., priority 2020, dated 2026).

System: chicken coccidium (Eimeria tenella)
Assay: Evaluation test of growth inhibition on chicken coccidium (Eimeria tenella)
Format: cell-based
Details: 48 h, mammal cells infected with sporozoite of chicken coccidium, indirect immunofluorescence, read-out: EC50 (inhibition of growth of chicken coccidium to a mature schizont)
Procedure: Test Example 1: Evaluation Test of Growth Inhibition on Chicken Coccidium (Eimeria tenella) Each of the benzimidazole compounds represented by General Formula (1) or salts of the compounds according to the present invention was diluted with a regulating liquid to a predetermined concentration and placed in a microtiter plate. To the dilution in the plate, mammal cells infected with a sporozoite of chicken coccidium were incubated. Forty-eight hours later, the degree of inhibition on growth of chicken coccidium to a mature schizont was examined by an indirect immunofluorescence technique, and EC50 was determined by calculation.

How did the EC50 turn out when `FC(F)(F)C(F)(F)COc1ccc(-c2nc3cc(Br)c(Br)cc3[nH]2)cn1` [Compound 11-5, 5,6-dibromo-2-(6-(2,2,3,3,3-pentafluoropropoxy)pyrid-3-yl)benzimidazole] was run?
Its EC50 is at most 20 µM.
